# Measured values reported in PMC11085156 (Molecules, 2024).
# Read-outs that look alike come from different tables or passages of the source.
# Assays:
# [1] = GC-MS analysis of culture media incubated with drugs in the absence of cells; format: physicochemical
# [2] = test system: ACTA2, COL1A1, COL3A1, TGFB1, TGFB2, TGFBR1, MMP1, and MMP3; experiment: qRT-PCR gene expression in drug-treated fibroblasts: panel of fibrosis-related marker genes; format: cell-based, human; settings: 4 d treatment; 50 µM
# Description: Drug treatments were performed as follows. […] RNA from cells after 4 d of drug treatment was isolated using the NucleoSpin RNA/protein mini kit (Macherey-Nagel, Allentown, PA, USA, 740933.50) according to the manufacturer’s instructions. The concentration of isolated RNA was measured using a Nanodrop 2000c Spectrophotometer (Thermo Scientific). […] A SYBR-based PowerTrack master mix (Thermo Fisher Scientific A46012) was used to perform RT-qPCR on a QuantStudio 6 Pro Real-Time PCR system (Thermo Fisher Scientific) in 10 μL reactions. The thermal protocol was as follows: 95 °C for 2 min, then 40 cycles of 95 °C for 15 s and 60 °C for 60 s. PCR primer sequences are listed in Table 2 and were the same as used in Larson et al., 2019 [17]. Fold change in gene expression was determined using the ΔΔCT method with GAPDH as the housekeeping gene.
# [3] = test system: smooth-muscle α-actin (α-SMA); experiment: Immunofluorescence staining for α-SMA in treated fibroblasts; format: cell-based, human; settings: 4 d treatment, 50 µM drug or tea (A. afra 1/4X)
# From the text: After 1 and 4 d, cells were fixed with paraformaldehyde and stained for immunofluorescence using primary mouse anti-α-SMA (Santa Cruz Biotechnology, Dallas, TX, USA, sc-32251) and secondary goat anti-mouse IgG AlexaFluor488-conjugated antibodies (Thermo Fisher Scientific A-11001), and DNA was counterstained with Hoechst 33342 as previously described.
# [4] = test system: human dermal fibroblasts (CRL-2097); experiment: Resazurin viability assay of human dermal fibroblasts; settings: for change in fibroblast viability: 50 µM
# Description: (§1) DMSO and water were the solvent controls for the artemisinic compounds and teas, respectively. Fibroblasts (passages 10–14) were seeded in 6-well plates in 2 mL medium at a density of 6250 cells/cm^2. After overnight attachment, media were aspirated and replaced with test drugs in growth media at the indicated concentrations and incubated at 37 °C and 5% CO2 in high humidity.
# (§2) After 1 or 4 d of treatment, media were aspirated and replaced with media containing resazurin (Thermo Fisher Scientific B21187.03) at a final concentration of 25 µg/mL (stock solution 0.15 mg/mL in DPBS). […] Fluorescence readings were normalized to the appropriate solvent controls.
# [5] = test system: MMP1; experiment: qRT-PCR gene expression in drug-treated fibroblasts: MMP1; format: cell-based, human; settings: 4 d treatment; 50 µM; GAPDH internal control
# Description: (§3) DMSO and water were the solvent controls for the artemisinic compounds and teas, respectively. Fibroblasts (passages 10–14) were seeded in 6-well plates in 2 mL medium at a density of 6250 cells/cm^2. After overnight attachment, media were aspirated and replaced with test drugs in growth media at the indicated concentrations and incubated at 37 °C and 5% CO2 in high humidity. After 4 d of drug treatment, cells were harvested, washed with 1× Dulbecco’s phosphate-buffered saline (DPBS; Thermo Fisher Scientific 14190136), snap frozen in liquid nitrogen, and stored at −80 °C until the time of RNA extraction for analysis.
# (§4) RNA from cells after 4 d of drug treatment was isolated using the NucleoSpin RNA/protein mini kit (Macherey-Nagel, Allentown, PA, USA, 740933.50) according to the manufacturer’s instructions. The concentration of isolated RNA was measured using a Nanodrop 2000c Spectrophotometer (Thermo Scientific). Complementary DNA (cDNA) was synthesized from RNA using a QuantiTect reverse transcription kit (Qiagen, Germantown, MD, USA, 205313) following the manufacturer’s instructions. A SYBR-based PowerTrack master mix (Thermo Fisher Scientific A46012) was used to perform RT-qPCR on a QuantStudio 6 Pro Real-Time PCR system (Thermo Fisher Scientific) in 10 μL reactions.
# [6] = test system: TGFB2; experiment: qRT-PCR gene expression in drug-treated fibroblasts: TGFB2; format: cell-based, human; settings: 4 d treatment; 50 µM; GAPDH internal control
# Description: as §3, §4
# [7] = Thin-layer chromatography of media from drug-treated fibroblasts; format: in vitro ADME, human; settings: fibroblast cultures, 50 µM
# Description: Media were extracted 1:1 with dichloromethane overnight, after which the solvent was separated and dried. Extracts (equivalent to 1 mL media) were resuspended in dichloromethane, spotted on Si-gel 60 F254 plates (EMD Millipore, Burlington, MA, USA, cat #1.05735.0001), and run in a mobile phase of 5:11:4 dichloromethane–hexane–acetone plus 0.5% v/v acetic acid. Plates were stained with p-anisaldehyde reagent (75 mL ethanol, 2.5 mL sulfuric acid, 1 mL acetic acid, and 2 mL p-anisaldehyde (Sigma Aldrich, St. Louis, MO, USA, A88107-100G)) and heated for 10 min at 105 °C.
# [8] = test system: TGFBR1; experiment: qRT-PCR gene expression in drug-treated fibroblasts: TGFBR1; format: cell-based, human; settings: 4 d treatment; 50 µM; GAPDH internal control
# Description: as §3, §4
# [9] = test system: MMP3; experiment: qRT-PCR gene expression in drug-treated fibroblasts: MMP3; format: cell-based, human; settings: 4 d treatment; 50 µM; GAPDH internal control
# Description: as §3, §4
# [10] = test system: human dermal fibroblasts (CRL-2097); settings: 50 µM
# Description: as §1, §2
# [11] = cell-free culture media incubated 4 days, 50 µM ART drugs, GC-MS
# [12] = cell-free culture media, 50 µM ART drugs, GC-MS
# [13] = 1 d treatment, 50 µM drug or tea normalized to 50 µM ART, % of solvent control
smiles,measurement,setting,value
"C[C@@H]1CC[C@H]2[C@@H](C)C(=O)O[C@@H]3O[C@@]4(C)CC[C@@H]1[C@]32OO4 [ART, artemisinin]","concentration of dART in culture media, Day 4",[1]; [11],500 ng/mL
same,"concentration of the treatment drug (ART for the tea) in culture media, Day 4","[1]; cell-free culture media incubated 4 days, 50 µM ART drugs, GC-MS, ND = not detected",420 ng/mL
same,"concentration of dART in culture media, Day 0",[1]; [12],0 ng/mL
same,ART disappeared,"[1]; day 4, cell-free culture media",> 99%
same,effects on the expressions of other markers (other than MMP1),[2],lacked effects
same,α-SMA staining compared to solvent control,[3],substantial increase
same,change in fibroblast viability,"[4]; 1 d exposure, vs solvent control",no significant change
same,decrease in fibroblast viability,"[4]; 4 d treatment, 50 µM drug or tea infusion, % of respective control",about 20%
"C[C@@H]1CC[C@H]2[C@@H](C)C(=O)O[C@@H]3O[C@@]4(C)CC[C@@H]1[C@]32O4 [dART, deoxyartemisinin]",change in fibroblast viability,"[4]; 4 d treatment, vs control",no change
"C[C@H]1[C@@H](O)O[C@@H]2O[C@@]3(C)CC[C@H]4[C@H](C)CC[C@@H]1[C@@]24OO3 [DHA, dihydroartemisinin]","increase in MMP1 expression, fold change vs. solvent control",[5],8 fold
same,"concentration of dART in culture media, Day 4",[1]; [11],6900 ng/mL
same,"concentration of dART in culture media, Day 0",[1]; [12],0 ng/mL
same,"decrease in TGFB2 expression, fold change vs. solvent control",[6],3.7 fold
same,treatment drug remaining in media (TLC),[7]; after day 1,nearly gone
same,dART in media (TLC),[7]; day 4,observed
same,treatment drug (ART for the tea) remaining in media (TLC),[7]; day 4,undetectable
same,α-SMA staining compared to solvent control,[3],considerably decreased
same,"decrease in TGFBR1 expression, fold change vs. solvent control",[8],4 fold
same,decrease in fibroblast viability,[4]; [13],~45%
same,"increase in MMP3 expression, fold change vs. solvent control",[9],51.8 fold
"C[C@H]1[C@H](OC(=O)CCC(=O)O)O[C@@H]2O[C@@]3(C)CC[C@H]4[C@H](C)CC[C@@H]1[C@@]24OO3 [AS, artesunate]","concentration of dART in culture media, Day 4",[1]; [11],1500 ng/mL
same,"concentration of dART in culture media, Day 0",[1]; [12],0 ng/mL
same,α-SMA staining compared to solvent control,[3],considerably decreased
same,decrease in fibroblast viability,[4]; [13],~35%
"CO[C@H]1O[C@@H]2O[C@@]3(C)CC[C@H]4[C@H](C)CC[C@@H]([C@H]1C)[C@@]24OO3 [AM, artemether]",change in fibroblast viability,[10],no significant change
